Tests used:
Test in all cases: relative viability (nuclei count vs DMSO), 5 days (fraction); higher = more cells survive
GSK-J4 + Pemetrexed = compound: CCOC(=O)CCNc1cc(N2CCc3ccccc3CC2)nc(-c2ccccn2)n1 [GSK-J4] + Nc1nc2[nH]cc(CCc3ccc(C(=O)N[C@@H](CCC(=O)O)C(=O)O)cc3)c2c(=O)[nH]1 [Pemetrexed] (partner 0.2 µM)
Method in brief: (§1)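 Lung cancer cell lines were seeded in 1536-well plates and dosed by pin tool the next day, with either a single drug or a fixed anchor-drug dose combined with five library-drug doses (not always all listed) spaced in √10 steps. Five days later, one step fixed the cells and stained their nuclei (final 0.05% Triton X-100, 1% formaldehyde, 1 ug/ml Hoechst), and nuclei were counted on 4× images. Relative viability is the nuclei count in treated wells divided by the count in vehicle wells, and each value is the median of duplicate plates.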

AZ3146 + Trametinib = compound: CN1CCC(CC1)OC2=CC(=C(C=C2)NC3=NC=C4C(=N3)N(C(=O)N4C)C5CCCC5)OC [AZ3146] + CC(=O)Nc1cccc(-n2c(=O)n(C3CC3)c(=O)c3c(Nc4ccc(I)cc4F)n(C)c(=O)c(C)c32)c1 [Trametinib] (partner 0.02 µM)
Method in brief: as §1

AZ3146 + Foretinib = compound: CN1CCC(CC1)OC2=CC(=C(C=C2)NC3=NC=C4C(=N3)N(C(=O)N4C)C5CCCC5)OC [AZ3146] + COc1cc2c(Oc3ccc(NC(=O)C4(C(=O)Nc5ccc(F)cc5)CC4)cc3F)ccnc2cc1OCCCN1CCOCC1 [Foretinib] (partner 0.25 µM)
Method in brief: as §1

AZ3146 + Pemetrexed = compound: CN1CCC(CC1)OC2=CC(=C(C=C2)NC3=NC=C4C(=N3)N(C(=O)N4C)C5CCCC5)OC [AZ3146] + Nc1nc2[nH]cc(CCc3ccc(C(=O)N[C@@H](CCC(=O)O)C(=O)O)cc3)c2c(=O)[nH]1 [Pemetrexed] (partner 0.2 µM)
Method in brief: as §1

Cell Line | relative viability (GSK-J4 + Pemetrexed; first compound 0.5 µM) | relative viability (GSK-J4 + Pemetrexed; first compound 1.581 µM) | relative viability (GSK-J4 + Pemetrexed; first compound 5 µM) | relative viability (GSK-J4 + Pemetrexed; first compound 15.81 µM) | relative viability (GSK-J4 + Pemetrexed; first compound 50 µM) | relative viability (AZ3146 + Trametinib; first compound 0.08 µM) | relative viability (AZ3146 + Trametinib; first compound 0.253 µM) | relative viability (AZ3146 + Trametinib; first compound 0.8 µM) | relative viability (AZ3146 + Trametinib; first compound 2.53 µM) | relative viability (AZ3146 + Trametinib; first compound 8 µM) | relative viability (AZ3146 + Foretinib; first compound 0.08 µM) | relative viability (AZ3146 + Foretinib; first compound 0.253 µM) | relative viability (AZ3146 + Foretinib; first compound 0.8 µM) | relative viability (AZ3146 + Foretinib; first compound 2.53 µM) | relative viability (AZ3146 + Foretinib; first compound 8 µM) | relative viability (AZ3146 + Pemetrexed; first compound 0.08 µM) | relative viability (AZ3146 + Pemetrexed; first compound 0.253 µM) | relative viability (AZ3146 + Pemetrexed; first compound 0.8 µM) | relative viability (AZ3146 + Pemetrexed; first compound 2.53 µM) | relative viability (AZ3146 + Pemetrexed; first compound 8 µM)
NCI-H1755 | 0.4 | 0.349 | 0.398 | 0.388 | 0.365 | 0.674 | 0.787 | 0.714 | 0.783 | 0.785 | 0.917 | 0.935 | 0.859 | 0.915 | 0.97 | 0.666 | 0.532 | 0.463 | 0.509 | 0.496
NCI-H520 | 0.632 | 0.5 | 0.655 | 0.57 | 0.547 | 0.643 | 0.691 | 0.54 | 0.677 | 0.49 | 0.566 | 0.867 | 0.58 | 0.91 | 0.83 | 0.843 | 0.735 | 0.647 | 0.543 | 0.422
LOU-NH91 | 0.39 | 0.381 | 0.36 | 0.346 | 0.441 | 0.838 | 0.76 | 0.867 | 0.794 | 0.781 | 0.967 | 0.902 | 1.01 | 0.931 | 0.948 | 0.327 | 0.448 | 0.362 | 0.368 | 0.411
LU99A | 0.16 | 0.158 | – | 0.178 | 0.166 | – | 0.501 | 0.567 | 0.68 | 0.579 | 0.699 | 0.87 | 0.782 | 0.849 | 0.869 | – | 0.188 | 0.181 | 0.165 | 0.186
PC-14 | 0.128 | 0.143 | 0.13 | 0.143 | 0.17 | 0.728 | 0.821 | 0.818 | 0.796 | 0.694 | 0.891 | 0.9 | 0.969 | 1.02 | 1.02 | 0.138 | 0.131 | 0.142 | 0.119 | 0.0971
LC-2-ad | 0.288 | 0.281 | 0.247 | 0.267 | 0.272 | 0.858 | 0.928 | 0.928 | 0.894 | 0.902 | 0.735 | 0.905 | 1.06 | 0.935 | 0.878 | 0.245 | 0.29 | 0.271 | 0.262 | 0.259
NCI-H2126 | 0.716 | 0.593 | 0.733 | 0.621 | 0.555 | 0.58 | 0.553 | 0.503 | 0.534 | 0.547 | 0.911 | 1.31 | 1.04 | 1.25 | 1.29 | 0.613 | 0.662 | 0.618 | 0.677 | 0.696

Reference: the supplement of paper PMC10307832
